Measured values published in patent publication US20260250290A1 (BRISTOL-MYERS SQUIBB COMPANY, priority 2023, published 2026).
Where a name gives a salt, the structure may show the parent alone.

molecular target: T1, full length SGK1 (Homo sapiens, UniProt O00141); assay: SGK1 inhibition Assay A (Caliper LabChip electrophoretic separation of fluorescent peptide substrate and phosphorylated product); format: biochemical; details: Assay A; 20 μM ATP, 40 min incubation; read-out: SGK1 IC50
T1 construct: 125 μM full length SGK1 (Life Technologies Part #PR7358A); purchased Life Technologies PR7358A
T1 sequence (O00141 1-431): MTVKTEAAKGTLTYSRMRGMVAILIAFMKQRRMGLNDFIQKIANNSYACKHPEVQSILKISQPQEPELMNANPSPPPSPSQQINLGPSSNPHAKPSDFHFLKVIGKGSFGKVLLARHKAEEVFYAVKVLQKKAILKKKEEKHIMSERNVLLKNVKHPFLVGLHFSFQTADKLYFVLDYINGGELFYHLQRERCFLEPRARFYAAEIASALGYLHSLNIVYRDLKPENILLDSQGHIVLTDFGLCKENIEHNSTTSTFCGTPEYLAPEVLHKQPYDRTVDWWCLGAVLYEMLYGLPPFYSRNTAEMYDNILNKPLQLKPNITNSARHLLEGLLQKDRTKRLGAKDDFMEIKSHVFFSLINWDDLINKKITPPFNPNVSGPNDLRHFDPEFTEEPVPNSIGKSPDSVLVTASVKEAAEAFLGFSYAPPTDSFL

IC50 [µM] | Structure (SMILES)
0.044 | CC(C)Cn1cc(-c2cc(N3CCC[C@@H](NC(=O)c4ccc(C(F)F)s4)C3)c3c(N)ncnn23)ccc1=O [Example 510, (R)-N-(1-(4-amino-7-(1-isobutyl-6-oxo-1,6-dihydropyridin-3-yl)pyrrolo[2,1-f][1,2,4]triazin-5-yl)piperidin-3-yl)-5-(difluoromethyl)thiophene-2-carboxamide]
0.008 | Nc1ncnn2c(-c3ccnc(C(F)F)c3)cc(N3CCC[C@@H](NC(=O)c4sc(Cl)cc4OC4CNC4)C3)c12 [Example 632, (R)-N-(1-(4-amino-7-(2-(difluoromethyl)pyridin-4-yl)pyrrolo[2,1-f][1,2,4]triazin-5-y1)piperidin-3-y1)-3-(azetidin-3-yloxy)-5-chlorothiophene-2-carboxamide]
0.005 | CNC(=O)c1ccc(-c2cc(N3CCC[C@@H](NC(=O)c4ccc(Cl)s4)C3)c3c(N)ncnn23)cn1 [Example 242, (R)-5-(4-amino-5-(3-(5-chlorothiophene-2-carboxamido)piperidin-1-yl)pyrrolo[2,1-f][1,2,4]triazin-7-yl)-N-methylpicolinamide]
2.99 | CCOC(=O)[C@H]1CCCN(c2cc(-c3ccc(S(C)(=O)=O)cc3)n3ncnc(N)c23)C1 [Example 1, ethyl (S)-1-(4-amino-7-(4-(methylsulfonyl)phenyl)pyrrolo[2,1-f][1,2,4]triazin-5-yl)piperidine-3-carboxylate]
0.002 | CC(=O)N1CC=C(c2cc(N3CCC[C@@H](NC(=O)c4sc(Cl)cc4OCC4CCCN4)C3)c3c(N)ncnn23)C1 (single isomer, unassigned) [Example 391D]
0.032 | Cc1nc(C)c(C(=O)N[C@@H]2CCCN(c3cc(-c4ccnc(C#N)c4)n4ncnc(N)c34)C2)s1 [Example 513, (R)-N-(1-(4-amino-7-(2-cyanopyridin-4-yl)pyrrolo[2,1-f][1,2,4]triazin-5-yl)piperidin-3-yl)-2.4-dimethylthiazole-5-carboxamide]
0.007 | CC(=O)N1CC=C(c2cc(N3CCCC(NC(=O)c4sc(Cl)cc4OC4CC5CC4CN5C(C)C)C3)c3c(N)ncnn23)C1 (single isomer, unassigned) [Example 611]
0.044 | CS(=O)(=O)c1ccc(-c2cc(N3CCC[C@@H](NC(=O)c4cnn(C(F)F)c4)C3)c3c(N)ncnn23)cc1 [Example 75, (R)-N-(1-(4-amino-7-(4-(methylsulfonyl)phenyl)pyrrolo[2,1-f][1,2,4]triazin-5-yl)piperidin-3-yl)-1-(difluoromethyl)-1H-pyrazole-4-carboxamide, TFA]
0.066 | Cc1nc(C)c(C(=O)N[C@@H]2CCCN(c3cc(-c4ccc(C#N)nc4)n4ncnc(N)c34)C2)s1 [Example 512, (R)-N-(1-(4-amino-7-(6-cyanopyridin-3-yl)pyrrolo[2,1-f][1,2,4]triazin-5-yl)piperidin-3-yl)-2.4-dimethylthiazole-5-carboxamide]
0.003 | COC(=O)N1CC=C(c2cc(N3CCC[C@@H](NC(=O)c4ccc(C(F)F)s4)C3)c3c(N)ncnn23)C1 [Example 480, Methyl (R)-3-(4-amino-5-(3-(5-(difluoromethyl)thiophene-2-carboxamido)piperidin-1-yl)pyrrolo[2,1-f][1,2,4]triazin-7-yl)-2,5-dihydro-1H-pyrrole-1-carboxylate]
0.034 | COC(=O)N1CC=C(c2cc(N3CCC[C@@H](NC(=O)c4sc(C(F)F)cc4N4CC5(COC5)C4)C3)c3c(N)ncnn23)C1 [Example 317, Methyl (R)-3-(4-amino-5-(3-(5-(difluoromethyl)-3-(2-oxa-6-azaspiro[3.3]heptan-6-yl)thiophene-2-carboxamido)piperidin-1-yl)pyrrolo[2,1-f][1,2,4]triazin-7-yl)-2,5-dihydro-1H-pyrrole-1-carboxylate]
0.007 | N#Cc1ccc(-c2cc(N3CCC[C@@H](NC(=O)c4sc(Cl)cc4OCC4CNC4)C3)c3c(N)ncnn23)cn1 [Example 635]
0.019 | CC(C)c1cc(C(=O)N[C@@H]2CCCN(c3cc(-c4ccc(S(C)(=O)=O)cc4)n4ncnc(N)c34)C2)on1 [Example 65, (R)-N-(1-(4-amino-7-(4-(methylsulfonyl)phenyl)pyrrolo [2,1-f][1,2,4]triazin-5-yl)piperidin-3-yl)-3-isopropylisoxazole-5-carboxamide]
0.022 | CC(=O)N1CC=C(c2cc(N3CCC[C@@H](NC(=O)c4cc(N5CCOCC5)c(C)s4)C3)c3c(N)ncnn23)C1 [Example 271, (R)—N-(1-(7-(1-acetyl-2,5-dihydro-1H-pyrrol-3-yl)-4-aminopyrrolo[2,1-f][1,2,4]triazin-5-yl)piperidin-3-yl)-5-methyl-4-morpholinothiophene-2-carboxamide]
0.13 | N#Cc1ccc(-c2cc(N3CCC[C@@H](NC(=O)c4cc5cc(F)ccc5[nH]4)C3)c3c(N)ncnn23)cn1 [Example 515, (R)-N-(1-(4-amino-7-(6-cyanopyridin-3-yl)pyrrolo[2,1-f][1,2,4]triazin-5-yl)piperidin-3-yl)-5-fluoro-1H-indole-2-carboxamide]
0.482 | CC(=O)N1CC=C(c2cc(N3CCC[C@@H](NC(=O)N4CC[C@@H](O)C4)C3)c3c(N)ncnn23)C1 [Example 874, (R)—N—((R)-1-(7-(1-acetyl-2,5-dihydro-1H-pyrrol-3-yl)-4-aminopyrrolo[2,1-f][1,2,4]triazin-5-yl)piperidin-3-yl)-3-hydroxypyrrolidine-1-carboxamide]
0.13 | CC(=O)N1CC=C(c2cc(N3CCC[C@@H](NC(=O)c4sc(C(F)F)cc4C4CCNC4)C3)c3c(N)ncnn23)C1 (single isomer, unassigned) [Example 398F]
0.026 | CC(=O)N1CC=C(c2cc(N3CCC[C@@H](NC(=O)c4ccc(-c5ccncc5)cc4)C3)c3c(N)ncnn23)C1 [Example 462, (R)-N-(1-(7-(1-acetyl-2,5-dihydro-1H-pyrrol-3-yl)-4-aminopyrrolo[2,1-f][1,2,4]triazin-5-yl)piperidin-3-yl)-4-(pyridin-4-yl)benzamide]
0.011 | CC(=O)N1CC=C(c2cc(N3CCC[C@@H](NC(=O)c4cccc(N5CCN(C)CC5)n4)C3)c3c(N)ncnn23)C1 [Example 704, (R)-N-(1-(7-(1-acetyl-2,5-dihydro-1H-pyrrol-3-yl)-4-aminopyrrolo[2,1-f][1,2,4]triazin-5-yl)piperidin-3-yl)-6-(4-methylpiperazin-1-yl)picolinamide]
0.07 | COC(=O)CN1CC=C(c2cc(N3CCC[C@@H](NC(=O)c4ccc(Cl)s4)C3)c3c(N)ncnn23)C1 [Example 911, methyl (R)-2-(3-(4-amino-5-(3-(5-chlorothiophene-2-carboxamido)piperidin-1-yl)pyrrolo[2,1-f][1,2,4]triazin-7-yl)-2,5-dihydro-1H-pyrrol-1-yl)acetate]
0.015 | CC(=O)N1CC=C(c2cc(N3CCC[C@@H](NC(=O)c4sc(C(F)F)cc4OCCN(C)C)C3)c3c(N)ncnn23)C1 [Example 305, (R)-N-(1-(7-(1-acetyl-2,5-dihydro-1H-pyrrol-3-yl)-4-aminopyrrolo[2,1-f][1,2,4]triazin-5-yl)piperidin-3-yl)-5-(difluoromethyl)-3-(2-(dimethylamino)ethoxy)thiophene-2-carboxamide]

Structure (SMILES) | IC50 [µM]
COc1ccc(OC(=O)N[C@@H]2CCCN(c3cc(C4=CCN(C(C)=O)C4)n4ncnc(N)c34)C2)cc1 [Example 812, 4-methoxyphenyl (R)-(1-(7-(1-acetyl-2,5-dihydro-1H-pyrrol-3-yl)-4-aminopyrrolo[2,1-f][1,2,4]triazin-5-yl)piperidin-3-yl)carbamate TFA salt] | 0.984
